According to PMC7471466 (Acta Pharmacologica Sinica, 2020):
Where two headings read alike, the source gives them in different places.

How the values were obtained:
[1] = patients, high dose (>50 mg MTX/kg) therapy regimens; cited from earlier work
AOX [2] = assay: AOX activity in rat hepatocytes, 7-OH MTX formation from probe substrate MTX; assay type: cell-based; details: for increase in 7-OH MTX yield vs control: then MTX 50 μM
AOX [3] = assay type: cell-based, human; details: for increase in 7-OH MTX yields vs control: human hepatocytes
AOX1 [4] = details: rat hepatocytes, 0–20 μM NIM for 24 h, concentration-dependent
AOX3 [5] = details: rat hepatocytes, 0–20 μM NIM for 24 h, concentration-dependent
AOX1 mRNA = details: rat hepatocytes, 0–20 μM NIM for 24 h
AOX3 mRNA [6] = details: rat hepatocytes, 0–20 μM NIM for 24 h
AOX [7] = tested on: AOX
AOX1 [8] = details: rat livers, 20, 50, 100 mg·kg−1·d−1 NIM for 5 days, dose-dependent
AOX3 [9] = details: rat livers, 20, 50, 100 mg·kg−1·d−1 NIM for 5 days, dose-dependent
AOX3 mRNA [10] = details: rat livers, 20, 50, 100 mg·kg−1·d−1 NIM for 5 days
AOX [11] = details: NIM 5–20 μM directly added to the RLC incubation of MTX
[12] = tested on: sandwich-cultured rat hepatocytes; details: concentration-dependent
rat hepatocytes = details: read-out: IC50 (toxic to hepatocytes); cited from earlier work
human hepatocytes = details: read-out: IC50 (toxic to hepatocytes); cited from earlier work
OATPs = details: cited from earlier work
MRP2 = details: cited from earlier work
[13] = NIM-treated rats, 100 mg·kg−1·d−1, 5 days, vs nontreated rats

For `CN(Cc1cnc2nc(N)nc(N)c2n1)c1ccc(C(=O)N[C@@H](CCC(=O)O)C(=O)O)cc1` [MTX, methotrexate], the “MTX excreted as 7-OH MTX” value [1] is listed as at most 33%.

With `CS(=O)(=O)Nc1ccc([N+](=O)[O-])cc1Oc1ccccc1` [NIM, nimesulide] the “increase in 7-OH MTX yields vs control” value (AOX [2]; 5 μM NIM for 24 h) was 1.3 fold, the “increase in 7-OH MTX yields vs control” value (AOX [2]; 10 μM NIM for 24 h) was 1.8 fold and the “increase in 7-OH MTX yield vs control” value (AOX [2]; 20 μM NIM for 12 h) was 1.7 fold. The “increase in 7-OH MTX yields vs control” value (AOX [2]; 20 μM NIM for 24 h (concentration experiment)) was 3.1 fold, the “increase in 7-OH MTX yield vs control” value (AOX [2]; 20 μM NIM for 24 h (induction time experiment)) was 2.5 fold and the “increase in 7-OH MTX yield vs control” value (AOX [2]; 20 μM NIM for 48 h) was 2.7 fold. The “increase in 7-OH MTX yield vs control” value (AOX [2]; 20 μM NIM for 72 h) was 2.7 fold, the “increase in 7-OH MTX yields vs control” value (AOX [3]; 10 μM NIM for 24 h) was 1.3 fold and the “increase in 7-OH MTX yields vs control” value (AOX [3]; 50 μM NIM for 24 h) was 1.7 fold. For the same molecule, the “increase in 7-OH MTX yields vs control” value (AOX [3]; 100 μM NIM for 24 h) was 2.0 fold, the “increase in 7-OH MTX formation” value (AOX [3]; primary human hepatocytes, NIM (20 μM) for 24 h) was 2.0 fold and the AOX1 protein level (AOX1 [4]) was “increased”. For the same molecule, the AOX3 protein level (AOX3 [5]) was “decreased”, the “AOX1 mRNA level” value (AOX1 mRNA) was “did not alter” and the “AOX3 mRNA level” value (AOX3 mRNA [6]) was “did not alter”. The “increase in accumulated excretion of 7-OH MTX in 0–24 h feces” value (male, Wistar, rat, feces, oral) was 2.1 fold, the “increase in accumulated excretion of 7-OH MTX in 0–24 h urine” value (male, Wistar, rat, urine, oral) was 5.2 fold and the “increase in accumulated excretion of MTX in 0–24 h urine” value (male, Wistar, rat, urine, oral) was 1.8 fold. For the same molecule, the “accumulated excretion of MTX in 0–24 h feces” value (rats, 100 mg·kg−1·d−1 NIM for 5 days, then oral MTX 50 mg/kg) was “no significant change”, the “increase in AOX-mediated metabolite from JNJ-38877605 in liver cytosol” value (AOX [7]; [13]) was 3.8 fold and the “increase in AOX-mediated metabolite from SGX523 in liver cytosol” value (AOX [7]; [13]) was 3.4 fold. For the same molecule, the “increase in AOX-mediated metabolite from phthalazine in liver cytosol” value (AOX [7]; [13]) was 2.5 fold, the “increase in 7-OH MTX formation in liver cytosol vs vehicle” value (from here on “increase … vs vehicle”) (AOX [7]; rats pretreated with 20 mg·kg−1·d−1 NIM for 5 days) was 1.9 fold and the “increase … vs vehicle” value (AOX [7]; rats pretreated with 50 mg·kg−1·d−1 NIM for 5 days) was 3.2 fold. The “increase … vs vehicle” value (AOX [7]; rats pretreated with 100 mg·kg−1·d−1 NIM for 1 day) was 1.0 fold, the “increase … vs vehicle” value (AOX [7]; rats pretreated with 100 mg·kg−1·d−1 NIM for 3 days) was 2.0 fold and the “increase … vs vehicle” value (AOX [7]; rats pretreated with 100 mg·kg−1·d−1 NIM for 5 days (dose experiment)) was 3.7 fold. For the same molecule, the “increase … vs vehicle” value (AOX [7]; rats pretreated with 100 mg·kg−1·d−1 NIM for 5 days (time experiment)) was 3.8 fold, the AOX1 protein level (AOX1 [8]) was “increased” and the AOX3 protein level (AOX3 [9]) was “decreased”. For the same molecule, the “AOX3 mRNA level” value (AOX3 mRNA [10]) was “no significant alteration”, the “7-OH MTX formation vs incubation containing no NIM” value (AOX [11]) was “no significant difference” and the “cellular plus biliary accumulation of MTX” value [12] was “reduced”. The IC50 (rat hepatocytes) was 40 µM, the IC50 (human hepatocytes) was 213 µM and the “inhibition of OATPs” value (OATPs) was “inhibitor”. For the same molecule, the “inhibition of MRP2” value (MRP2) was “inhibitor”.
